Experiments:
Settings in all cases: incubation time: 72 h
HCC1599 [1] = experiment: drug sensitivity score (DSS), CellTox Green (DSS (AUC-based score)); higher = stronger drug effect (viability inhibition or cytotoxicity); extreme values may be limits of the assay
Outline: (§1)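 The drug sensitivity score reflects the area under a fitted dose-response curve. To obtain it, breast cancer cells in 20 µl suspension were seeded into 384-well plates containing compound at 5 concentrations, 10-fold apart over a compound-specific 10,000-fold range, and incubated 72 h. CellTox Green fluorescence (485/520 nm) was read first and CellTiter-Glo luminescence second, after 10 min at room temperature. Each plate was normalised to 0.1 % DMSO and a positive kill control.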

MDA-MB-436 [2] = experiment: as above
Outline: as §1

BT-549 [3] = experiment: as above
Outline: as §1

MDA-MB-231 [4] = experiment: as above
Outline: as §1

HDQ-P1 [5] = experiment: as above
Outline: as §1

HCC1937 [6] = experiment: as above
Outline: as §1

HCC1599 [7] = experiment: normalised viability (% of control), CellTiter-Blue; higher = more viable cells (about 100 = DMSO control)
Outline: (§2)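 The reported quantity is normalised viability at a single listed concentration of the series. Compound in 5 µl medium was pre-dispensed into 384-well plates and 20 µl of breast cancer cell suspension was added for 72 h. A 2 h, 37 °C CellTiter-Blue step (2.5 µl) preceded fluorescence reading at 560/590 nm, and plates were normalised to vehicle (100) and a positive kill control (0).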

MDA-MB-453 = experiment: as above
Outline: as §2

HCC1143 = experiment: as above
Outline: as §2

MDA-MB-436 [8] = experiment: as above
Outline: as §2

MDA-MB-468 = experiment: as above
Outline: as §2

CAL-148 = experiment: as above
Outline: as §2

BT-474 = experiment: as above
Outline: as §2

CAL-51 = experiment: as above
Outline: as §2

BT-549 [9] = experiment: as above
Outline: as §2

CAL-120 = experiment: as above
Outline: as §2

SK-BR-3 = experiment: as above
Outline: as §2

CAL-85-1 = experiment: as above
Outline: as §2

MDA-MB-231 [10] = experiment: as above
Outline: as §2

DU-4475 = experiment: as above
Outline: as §2

HDQ-P1 [11] = experiment: as above
Outline: as §2

MFM-223 = experiment: as above
Outline: as §2

Hs578T = experiment: as above
Outline: as §2

HCC1937 [12] = experiment: as above
Outline: as §2

`O=C(Nc1c[nH]nc1-c1nc2ccc(CN3CCOCC3)cc2[nH]1)NC1CC1` [AT9283] was tested, and the drug sensitivity score (HCC1599 [1]) was 0, the drug sensitivity score (MDA-MB-436 [2]) was 0 and the drug sensitivity score (BT-549 [3]) was 0. For the same molecule, the drug sensitivity score (MDA-MB-231 [4]) was 14.3, the drug sensitivity score (HDQ-P1 [5]) was 0 and the drug sensitivity score (HCC1937 [6]) was 0. For the same molecule, the normalised viability (HCC1599 [7]; 10 nM) was 102%, the normalised viability (HCC1599 [7]; 1000 nM) was 72.5% and the normalised viability (HCC1599 [7]; 10000 nM) was 11.9%. The normalised viability (MDA-MB-453; 3 nM) was 99.2%, the normalised viability (MDA-MB-453; 30 nM) was 60.1% and the normalised viability (MDA-MB-453; 100 nM) was 54.7%. For the same molecule, the normalised viability (HCC1143; 10 nM) was 77.8%, the normalised viability (HCC1143; 1000 nM) was 51.8% and the normalised viability (HCC1143; 10000 nM) was 13.9%. It also gave a normalised viability (MDA-MB-436 [8]; 10 nM) of 97.4%, a normalised viability (MDA-MB-436 [8]; 1000 nM) of 64.2% and a normalised viability (MDA-MB-436 [8]; 10000 nM) of 29.6%. It also gave a normalised viability (MDA-MB-468; 10 nM) of 108%, a normalised viability (MDA-MB-468; 1000 nM) of 43.1% and a normalised viability (MDA-MB-468; 10000 nM) of 6.32%. It also gave a normalised viability (CAL-148; 3 nM) of 80%, a normalised viability (CAL-148; 30 nM) of 69% and a normalised viability (CAL-148; 100 nM) of 31.8%. It also gave a normalised viability (BT-474; 10 nM) of 111%, a normalised viability (BT-474; 1000 nM) of 78.8% and a normalised viability (BT-474; 10000 nM) of 7.58%. It also gave a normalised viability (CAL-51; 3 nM) of 107%, a normalised viability (CAL-51; 30 nM) of 97.8% and a normalised viability (CAL-51; 100 nM) of 56.3%. It also gave a normalised viability (BT-549 [9]; 10 nM) of 95.8%, a normalised viability (BT-549 [9]; 1000 nM) of 46.7% and a normalised viability (BT-549 [9]; 10000 nM) of 4.31%. For the same molecule, the normalised viability (CAL-120; 10 nM) was 84.9%, the normalised viability (CAL-120; 1000 nM) was 22.1% and the normalised viability (CAL-120; 10000 nM) was 6.61%. It also gave a normalised viability (SK-BR-3; 10 nM) of 93.9%, a normalised viability (SK-BR-3; 1000 nM) of 40.3% and a normalised viability (SK-BR-3; 10000 nM) of 6.9%. The normalised viability (CAL-85-1; 3 nM) was 89.8%, the normalised viability (CAL-85-1; 30 nM) was 72.8% and the normalised viability (CAL-85-1; 100 nM) was 78.6%. It also gave a normalised viability (MDA-MB-231 [10]; 10 nM) of 87.5%, a normalised viability (MDA-MB-231 [10]; 1000 nM) of 43.3% and a normalised viability (MDA-MB-231 [10]; 10000 nM) of 5.14%. It also gave a normalised viability (DU-4475; 3 nM) of 91.2%, a normalised viability (DU-4475; 30 nM) of 94.1% and a normalised viability (DU-4475; 100 nM) of 43.9%. The normalised viability (HDQ-P1 [11]; 3 nM) was 113%, the normalised viability (HDQ-P1 [11]; 30 nM) was 97.3% and the normalised viability (HDQ-P1 [11]; 100 nM) was 81.2%. The normalised viability (MFM-223; 10 nM) was 93.4%, the normalised viability (MFM-223; 1000 nM) was 57.4% and the normalised viability (MFM-223; 10000 nM) was 19%. It also gave a normalised viability (Hs578T; 10 nM) of 124%, a normalised viability (Hs578T; 1000 nM) of 33.9% and a normalised viability (Hs578T; 10000 nM) of 1.79%. For the same molecule, the normalised viability (HCC1937 [12]; 10 nM) was 106%, the normalised viability (HCC1937 [12]; 1000 nM) was 43.4% and the normalised viability (HCC1937 [12]; 10000 nM) was 15.5%.

In the case of `CC(=O)OC[C@H]1O[C@@H]([S-])[C@H](OC(C)=O)[C@@H](OC(C)=O)[C@@H]1OC(C)=O.CCP(CC)CC.[Au+]` [Auranofin], the drug sensitivity score (HCC1599 [1]) is reported as 0, the drug sensitivity score (MDA-MB-436 [2]) is reported as 0 and the drug sensitivity score (BT-549 [3]) is reported as 4.41. It also gave a drug sensitivity score (MDA-MB-231 [4]) of 3.16, a drug sensitivity score (HDQ-P1 [5]) of 6.27 and a drug sensitivity score (HCC1937 [6]) of 4.79.

With `CCC/C=C/C=C/C(=O)O[C@H]1/C(=C/C(=O)OC)C[C@H]2C[C@H]([C@@H](C)O)OC(=O)C[C@H](O)C[C@@H]3C[C@H](OC(C)=O)C(C)(C)[C@](O)(C[C@@H]4C/C(=C/C(=O)OC)C[C@H](/C=C/C(C)(C)[C@]1(O)O2)O4)O3` [Bryostatin 1] the drug sensitivity score (HCC1599 [1]) was 0, the drug sensitivity score (BT-549 [3]) was 0 and the drug sensitivity score (MDA-MB-231 [4]) was 0. The drug sensitivity score (HDQ-P1 [5]) was 10.8, the drug sensitivity score (HCC1937 [6]) was 4.81 and the normalised viability (HCC1599 [7]; 0.1 nM) was 112%. The normalised viability (HCC1599 [7]; 10 nM) was 116%, the normalised viability (HCC1599 [7]; 100 nM) was 115% and the normalised viability (MDA-MB-453; 0.03 nM) was 105%. It also gave a normalised viability (MDA-MB-453; 0.3 nM) of 95%, a normalised viability (MDA-MB-453; 1 nM) of 94.8% and a normalised viability (HCC1143; 0.1 nM) of 85.3%. The normalised viability (HCC1143; 10 nM) was 80.5%, the normalised viability (HCC1143; 100 nM) was 80.5% and the normalised viability (MDA-MB-436 [8]; 0.1 nM) was 110%. The normalised viability (MDA-MB-436 [8]; 10 nM) was 103%, the normalised viability (MDA-MB-436 [8]; 100 nM) was 127% and the normalised viability (MDA-MB-468; 10 nM) was 99.6%. The normalised viability (MDA-MB-468; 1000 nM) was 104%, the normalised viability (MDA-MB-468; 10000 nM) was 94.4% and the normalised viability (CAL-148; 0.03 nM) was 91.6%. For the same molecule, the normalised viability (CAL-148; 0.3 nM) was 101%, the normalised viability (CAL-148; 1 nM) was 88% and the normalised viability (BT-474; 10 nM) was 109%. It also gave a normalised viability (BT-474; 1000 nM) of 109%, a normalised viability (BT-474; 10000 nM) of 102% and a normalised viability (CAL-51; 0.03 nM) of 108%. It also gave a normalised viability (CAL-51; 0.3 nM) of 104%, a normalised viability (CAL-51; 1 nM) of 108% and a normalised viability (BT-549 [9]; 0.1 nM) of 100%. For the same molecule, the normalised viability (BT-549 [9]; 10 nM) was 87.9%, the normalised viability (BT-549 [9]; 100 nM) was 100% and the normalised viability (CAL-120; 0.1 nM) was 90.7%. It also gave a normalised viability (CAL-120; 10 nM) of 89.1%, a normalised viability (CAL-120; 100 nM) of 93.4% and a normalised viability (SK-BR-3; 10 nM) of 95%. The normalised viability (SK-BR-3; 1000 nM) was 67%, the normalised viability (SK-BR-3; 10000 nM) was 61.4% and the normalised viability (CAL-85-1; 0.03 nM) was 95.3%. The normalised viability (CAL-85-1; 0.3 nM) was 107%, the normalised viability (CAL-85-1; 1 nM) was 117% and the normalised viability (MDA-MB-231 [10]; 10 nM) was 101%. The normalised viability (MDA-MB-231 [10]; 1000 nM) was 82.8%, the normalised viability (MDA-MB-231 [10]; 10000 nM) was 90.2% and the normalised viability (DU-4475; 0.03 nM) was 92.7%. The normalised viability (DU-4475; 0.3 nM) was 79.2%, the normalised viability (DU-4475; 1 nM) was 91.2% and the normalised viability (HDQ-P1 [11]; 0.03 nM) was 104%. It also gave a normalised viability (HDQ-P1 [11]; 0.3 nM) of 106%, a normalised viability (HDQ-P1 [11]; 1 nM) of 107% and a normalised viability (MFM-223; 0.1 nM) of 97%. For the same molecule, the normalised viability (MFM-223; 10 nM) was 91.2%, the normalised viability (MFM-223; 100 nM) was 94.6% and the normalised viability (Hs578T; 0.1 nM) was 95.1%. The normalised viability (Hs578T; 10 nM) was 97%, the normalised viability (Hs578T; 100 nM) was 106% and the normalised viability (HCC1937 [12]; 10 nM) was 108%. The normalised viability (HCC1937 [12]; 1000 nM) was 80.2% and the normalised viability (HCC1937 [12]; 10000 nM) was 103%.

— the supplement of paper PMC4862054
